Source: ChEMBL document CHEMBL1201862, “PubChem BioAssay data set” (2004)
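Each compound was tested at five concentrations against cells in 96-well plates for 48 hours. GI50 marks 50% less growth.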 Active and inactive are the calls of the source. Rule as the data show it: active = GI50 up to about 1.1 µM and inactive = higher.

Key:
Experiment in all cases: NCI anticancer screen, dose series, 48 h
HCC 2998 = system: HCC 2998
UACC-62 = system: UACC-62
HOP-62 = system: HOP-62
HT-29 = system: HT-29
SF-295 = system: SF-295
HCT-116 = system: HCT-116
HOP-92 = system: HOP-92
SF-268 = system: SF-268
RXF 393 = system: RXF 393
OVCAR-5 = system: OVCAR-5
TK-10 = system: TK-10
SNB-75 = system: SNB-75
OVCAR-3 = system: OVCAR-3
NCI-H522 = system: NCI-H522
MOLT-4 = system: MOLT-4
COLO 205 = system: COLO 205
ACHN = system: ACHN
NCI-H460 = system: NCI-H460
A498 = system: A498

Measured: GI50

C/C(CC(=O)Nc1cc(Cl)c(Cl)cc1Cl)=N\NC(N)=O
inactive: HCC 2998 > 100 µM | UACC-62 > 100 µM | HOP-62 > 100 µM | HT-29 > 100 µM | SF-295 > 100 µM | HCT-116 > 100 µM | HOP-92 39.1 µM | SF-268 > 100 µM | RXF 393 61.7 µM | OVCAR-5 > 100 µM | TK-10 > 100 µM | SNB-75 66.5 µM | OVCAR-3 > 100 µM | NCI-H522 28.1 µM | MOLT-4 > 100 µM | COLO 205 > 100 µM

CNC(=S)N(C)C(=S)Nn1c(=O)c(C)nn(C)c1=S
inactive: ACHN > 100 µM | UACC-62 > 100 µM | HOP-62 > 100 µM | NCI-H460 > 100 µM | HT-29 > 100 µM | SF-295 > 100 µM | HCT-116 > 100 µM | HOP-92 > 100 µM | SF-268 > 100 µM | RXF 393 > 100 µM | OVCAR-5 > 100 µM | A498 > 100 µM | SNB-75 > 100 µM | NCI-H522 > 100 µM | MOLT-4 > 100 µM | COLO 205 > 100 µM

O=c1nc2n(c3nsnc13)CCO2
inactive: ACHN > 100 µM | HCC 2998 > 100 µM | UACC-62 > 100 µM | HOP-62 > 100 µM | NCI-H460 > 100 µM | HT-29 > 100 µM | HCT-116 29.8 µM | HOP-92 > 100 µM | SF-268 > 100 µM | RXF 393 > 100 µM | OVCAR-5 > 100 µM | TK-10 > 100 µM | SNB-75 > 100 µM | OVCAR-3 > 100 µM | NCI-H522 > 100 µM | MOLT-4 > 100 µM | COLO 205 > 100 µM

Cc1ccc(NC(=O)SCCC(=O)O)cc1
inactive: ACHN > 100 µM | HCC 2998 > 100 µM | UACC-62 45.7 µM | HOP-62 > 100 µM | NCI-H460 > 100 µM | HT-29 > 100 µM | SF-295 > 100 µM | HCT-116 > 100 µM | SF-268 17.2 µM | RXF 393 > 100 µM | OVCAR-5 > 100 µM | TK-10 > 100 µM | A498 > 100 µM | SNB-75 8.95 µM | OVCAR-3 > 100 µM | NCI-H522 > 100 µM | MOLT-4 > 100 µM | COLO 205 > 100 µM

O=c1[nH]c(-c2ccc([N+](=O)[O-])cc2)nc2ccc(Cl)cc12
inactive: ACHN > 100 µM | HCC 2998 > 100 µM | UACC-62 > 100 µM | HT-29 > 100 µM | SF-295 > 100 µM | HCT-116 > 100 µM | HOP-92 26.8 µM | SF-268 > 100 µM | RXF 393 78.3 µM | OVCAR-5 > 100 µM | TK-10 51.8 µM | SNB-75 57.5 µM | MOLT-4 23.6 µM | COLO 205 > 100 µM

CC1CCC2(CC1)NN=c1s/c(=C\c3ccc(O)cc3)c(=O)n1N2 (stereo unspecified)
inactive: HCC 2998 > 100 µM | UACC-62 > 100 µM | HOP-62 > 100 µM | NCI-H460 > 100 µM | HT-29 > 100 µM | SF-295 > 100 µM | HCT-116 > 100 µM | SF-268 > 100 µM | RXF 393 > 100 µM | TK-10 > 100 µM | SNB-75 63.5 µM | OVCAR-3 > 100 µM | NCI-H522 > 100 µM | MOLT-4 > 100 µM | COLO 205 > 100 µM

O=C(c1ccccc1)c1nnn(Cc2cccc(Cl)c2)c1C(=O)c1ccccc1
inactive: ACHN > 100 µM | HCC 2998 44 µM | UACC-62 > 100 µM | HOP-62 > 100 µM | NCI-H460 8.17 µM | HT-29 > 100 µM | SF-295 > 100 µM | HCT-116 > 100 µM | HOP-92 > 100 µM | SF-268 > 100 µM | RXF 393 > 100 µM | OVCAR-5 > 100 µM | TK-10 > 100 µM | SNB-75 > 100 µM | OVCAR-3 > 100 µM | NCI-H522 > 100 µM | MOLT-4 > 100 µM | COLO 205 15 µM

O=[N+]([O-])c1ccc(-c2ccc(-c3csc(Nc4ccccn4)n3)o2)cc1
inactive: ACHN 45.8 µM | HCC 2998 > 100 µM | UACC-62 29.9 µM | HOP-62 31.2 µM | NCI-H460 > 10 µM | HT-29 > 100 µM | SF-295 46.3 µM | HCT-116 47.9 µM | HOP-92 > 100 µM | SF-268 19.7 µM | OVCAR-5 > 100 µM | TK-10 26.9 µM | SNB-75 > 100 µM | OVCAR-3 > 100 µM | NCI-H522 > 100 µM | MOLT-4 > 100 µM | COLO 205 > 100 µM

O=C(Nc1ccccc1-c1n[nH]c(S)nc1=O)C(F)(F)F
inactive: ACHN > 100 µM | HCC 2998 > 100 µM | UACC-62 > 100 µM | HOP-62 > 100 µM | NCI-H460 > 100 µM | HT-29 > 100 µM | SF-295 > 100 µM | HCT-116 > 100 µM | HOP-92 > 100 µM | SF-268 > 100 µM | RXF 393 > 100 µM | OVCAR-5 > 100 µM | TK-10 > 100 µM | SNB-75 > 100 µM | OVCAR-3 > 100 µM | NCI-H522 64.3 µM | MOLT-4 > 100 µM | COLO 205 > 100 µM

COC(=O)c1c(-c2ccccc2)cc2c3cc(-c4ccccc4)c(C(=O)OC)n3c3ccccc3n12
inactive: ACHN > 100 µM | HCC 2998 > 100 µM | UACC-62 > 100 µM | HOP-62 > 100 µM | NCI-H460 > 100 µM | HT-29 > 100 µM | SF-295 > 100 µM | HCT-116 > 100 µM | SF-268 > 100 µM | RXF 393 > 44.8 µM | OVCAR-5 > 100 µM | TK-10 > 100 µM | A498 > 100 µM | SNB-75 20.1 µM | OVCAR-3 > 100 µM | NCI-H522 > 91 µM | MOLT-4 > 100 µM | COLO 205 > 100 µM

CCOC(=O)NC(=O)c1cn(CCCCCCOC(=O)NCCCCCCNC(=O)OCCCCCCn2cc(C(=O)NC(=O)OCC)c(=O)[nH]c2=O)c(=O)[nH]c1=O
inactive: ACHN > 100 µM | HCC 2998 > 100 µM | UACC-62 > 100 µM | HOP-62 > 100 µM | NCI-H460 > 100 µM | HT-29 > 100 µM | SF-295 > 100 µM | HCT-116 > 100 µM | SF-268 > 100 µM | RXF 393 > 100 µM | A498 > 100 µM | SNB-75 > 100 µM | OVCAR-3 > 100 µM | NCI-H522 > 100 µM | MOLT-4 > 100 µM | COLO 205 > 100 µM

Cn1c(=O)c2ccccc2c2nc3ccccc3nc21
inactive: ACHN > 100 µM | HCC 2998 > 100 µM | UACC-62 > 100 µM | HT-29 > 100 µM | SF-295 59.2 µM | HCT-116 > 100 µM | SF-268 > 100 µM | RXF 393 > 100 µM | OVCAR-5 > 100 µM | TK-10 45.5 µM | SNB-75 25.2 µM | MOLT-4 > 100 µM | COLO 205 > 100 µM
